{"source": "patent US20100144626A1", "about": "“Treatment of Multi-Drug Resistant Bacterial Infections” (priority 2006, published 2010)", "key": {"[1]": {"settings": "in vivo; cited from earlier work"}, "[2]": {"system": "clinical MRSA and VISA strains", "assay": "MICs for clinical MRSA and VISA strains", "assay_type": "cell-based", "settings": "Staphylococcus aureus; range over strains; read-out: MICs for the clinical MRSA and VISA strains tested", "protocol": "In example experiments miconazole nitrate, was dissolved in methanol and econazole nitrate and clotrimazole were dissolved in DMSO and methanol respectively. Other solvents that may be used include caster oil, pyridine, DMSO and 0.9% saline. For IV administration agents may be solubilised in polyethoxylated caster oil, or cyclodextrins such as sulfobutylether7-βcyclodextrin or hydroxypropyl-β-cyclodextrin and lactic acid. Minimum inhibitory concentrations (MICs) of a range of clinical and control bacterial organisms were measured according to BSAC (British Society for Antimicrobial Chemotherapy) guidelines, described briefly as follows;\nStock solutions were prepared at concentrations of 1000 mg/L and 100 mg/L. The appropriate amounts of each stock solution were added to separate Petri dishes give the following final concentrations (after the addition of 20 mL molten agar): 128, 64, 32, 16, 8, 4, 2, 1, 0.5, 0.25, 0.12, 0.06, 0.03, 0.015 mg/L.\nThe test organisms were grown overnight in 5 mL IST broth. Using a dilution in 0.9% saline of 1:500 for Gram-negative organisms and 1:100 for Gram-positive organisms, the appropriate agar plates were inoculated using a multipoint inoculator. […]\nThe MIC is the minimum amount of an antibiotic at which there is no visible growth of bacteria. Tiny single colonies or faint hazes were not counted as growth."}, "[3]": {"system": "MRSA", "settings": "cited from earlier work"}, "[4]": {"settings": "in vivo; cited from earlier work", "remark": "listed apart in the source"}}}
{"smiles": "Clc1ccccc1C(c1ccccc1)(c1ccccc1)n1ccnc1", "note": "[Clotrimazole, 1-[(2-chlorophenyl)diphenylmethyl]-1H-imidazole]", "values": [{"measurement": "concentration in the stratum corneum", "setting": "[1]", "result": 100, "unit": "mcg/cm3"}, {"measurement": "concentration in the stratum reticulare", "setting": "[1]", "result": "0.5-1 mcg/cm3"}, {"measurement": "concentration in the subcutis", "setting": "[1]", "result": 0.1, "unit": "mcg/cm3"}]}
{"smiles": "Clc1ccc(COC(Cn2ccnc2)c2ccc(Cl)cc2Cl)c(Cl)c1", "note": "(stereo not drawn) [Miconazole, 1-[2-(2,4-dichlorophenyl)-2-[(2,4-dichlorophenyl)methoxy]ethyl]-1H-imidazole]", "values": [{"measurement": "MIC", "setting": "[2]", "result": "0.25 to 2", "unit": "µg/mL"}, {"measurement": "anti-MRSA activity in presence of lipophilic a-tocopherol (vitamin E)", "setting": "[3]; Lee et al. 1999", "result": "completely suppressed"}, {"measurement": "minimum inhibitory concentration against MRSA", "setting": "[3]; Lee et al., J. Microbiol. Biotechnol. 9 (1999), estimated", "result": 0.78, "unit": "µg/mL"}, {"measurement": "biological half life, first phase of triphasic elimination", "setting": "[4]", "result": 0.4, "unit": "hours"}, {"measurement": "biological half life, second phase of triphasic elimination", "setting": "[4]", "result": 2.1, "unit": "hours"}, {"measurement": "biological half life, third phase of triphasic elimination", "setting": "[4]", "result": 24.1, "unit": "hours"}]}
